Measurements published in PubChem BioAssay (NCI).
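Values below derive from 48-hour exposures of cells grown in 96-well plates, with endpoints linearly interpolated between the two concentrations bracketing the appropriate inhibition level. Abbreviation: GI50, concentration required for 50% inhibition of growth. TGI denotes the concentration required for complete inhibition of growth.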

Experiments:
Experiment in all cases: NCI-60 cell line screen, 48 h
NCI/ADR-RES ovarian = tested on: NCI/ADR-RES ovarian
MALME-3M melanoma = tested on: MALME-3M melanoma
SNB-19 CNS = tested on: SNB-19 CNS
MOLT-4 leukemia = tested on: MOLT-4 leukemia
UACC-257 melanoma = tested on: UACC-257 melanoma
ACHN renal = tested on: ACHN renal
OVCAR-5 ovarian = tested on: OVCAR-5 ovarian
NCI-H522 lung = tested on: NCI-H522 lung
OVCAR-4 ovarian = tested on: OVCAR-4 ovarian
MCF7 breast = tested on: MCF7 breast
NCI-H226 lung = tested on: NCI-H226 lung
HS 578T breast = tested on: HS 578T breast
SN12C renal = tested on: SN12C renal
SK-MEL-2 melanoma = tested on: SK-MEL-2 melanoma
OVCAR-3 ovarian = tested on: OVCAR-3 ovarian
RXF 393 renal = tested on: RXF 393 renal
SF-539 CNS = tested on: SF-539 CNS
SW-620 colon = tested on: SW-620 colon
T-47D breast = tested on: T-47D breast
HOP-62 NSCLC = tested on: HOP-62 NSCLC
TK-10 renal = tested on: TK-10 renal
PC-3 prostate = tested on: PC-3 prostate
HT29 colon = tested on: HT29 colon
SF-295 CNS = tested on: SF-295 CNS
NCI-H23 lung = tested on: NCI-H23 lung
COLO 205 colon = tested on: COLO 205 colon
KM12 colon = tested on: KM12 colon
UO-31 renal = tested on: UO-31 renal
SK-OV-3 ovarian = tested on: SK-OV-3 ovarian
SR leukemia = tested on: SR leukemia
SK-MEL-28 melanoma = tested on: SK-MEL-28 melanoma
EKVX NSCLC = tested on: EKVX NSCLC
NCI-H460 lung = tested on: NCI-H460 lung
SNB-75 CNS = tested on: SNB-75 CNS
HCT-116 colon = tested on: HCT-116 colon
LOX IMVI melanoma = tested on: LOX IMVI melanoma
M14 melanoma = tested on: M14 melanoma
MDA-MB-435 = tested on: MDA-MB-435
K-562 leukemia = tested on: K-562 leukemia
SF-268 CNS = tested on: SF-268 CNS
CAKI-1 renal = tested on: CAKI-1 renal
BT-549 breast = tested on: BT-549 breast
U251 CNS = tested on: U251 CNS
RPMI-8226 leukemia = tested on: RPMI-8226 leukemia
MDA-MB-468 breast = tested on: MDA-MB-468 breast
OVCAR-8 ovarian = tested on: OVCAR-8 ovarian
CCRF-CEM leukemia = tested on: CCRF-CEM leukemia
A549 NSCLC = tested on: A549 NSCLC
HCT-15 colon = tested on: HCT-15 colon
786-0 renal = tested on: 786-0 renal
DU-145 prostate = tested on: DU-145 prostate
HL-60(TB) leukemia = tested on: HL-60(TB) leukemia
IGROV1 ovarian = tested on: IGROV1 ovarian
HCC-2998 colon = tested on: HCC-2998 colon
A498 renal = tested on: A498 renal
UACC-62 melanoma = tested on: UACC-62 melanoma
HOP-92 NSCLC = tested on: HOP-92 NSCLC
MDA-MB-231 breast = tested on: MDA-MB-231 breast
SK-MEL-5 melanoma = tested on: SK-MEL-5 melanoma

O=C(NNc1nc2cc(C(F)(F)F)ccc2n2cccc12)c1cnccn1
GI50 (NCI/ADR-RES ovarian): 255 nM | TGI (NCI/ADR-RES ovarian): 1480 nM | GI50 (MALME-3M melanoma): 1140 nM | TGI (MALME-3M melanoma): 2550 nM | GI50 (SNB-19 CNS): 437 nM | TGI (SNB-19 CNS): 2540 nM | GI50 (MOLT-4 leukemia): 235 nM | TGI (MOLT-4 leukemia): 5060 nM | GI50 (UACC-257 melanoma): 501 nM | TGI (UACC-257 melanoma): 1940 nM | GI50 (ACHN renal): 217 nM | TGI (ACHN renal): 1450 nM | GI50 (OVCAR-5 ovarian): 776 nM | TGI (OVCAR-5 ovarian): 2490 nM | GI50 (NCI-H522 lung): 248 nM | TGI (NCI-H522 lung): 944 nM | GI50 (OVCAR-4 ovarian): 266 nM | TGI (OVCAR-4 ovarian): 2270 nM | GI50 (MCF7 breast): 293 nM | TGI (MCF7 breast): 1500 nM | GI50 (NCI-H226 lung): 772 nM | TGI (NCI-H226 lung): 3900 nM | GI50 (HS 578T breast): 1500 nM | TGI (HS 578T breast): 10700 nM | GI50 (SN12C renal): 411 nM | TGI (SN12C renal): 2070 nM | GI50 (SK-MEL-2 melanoma): 475 nM | TGI (SK-MEL-2 melanoma): 1730 nM | GI50 (OVCAR-3 ovarian): 287 nM | TGI (OVCAR-3 ovarian): 1580 nM | GI50 (RXF 393 renal): 1050 nM | TGI (RXF 393 renal): 2310 nM | GI50 (SF-539 CNS): 406 nM | TGI (SF-539 CNS): 1980 nM | GI50 (SW-620 colon): 422 nM | TGI (SW-620 colon): 2470 nM | GI50 (T-47D breast): 292 nM | TGI (T-47D breast): 1720 nM | GI50 (HOP-62 NSCLC): 214 nM | TGI (HOP-62 NSCLC): 1920 nM | GI50 (TK-10 renal): 452 nM | TGI (TK-10 renal): 1770 nM | GI50 (PC-3 prostate): 325 nM | TGI (PC-3 prostate): 2190 nM | GI50 (HT29 colon): 553 nM | TGI (HT29 colon): 2310 nM | GI50 (SF-295 CNS): 134 nM | TGI (SF-295 CNS): 1590 nM | GI50 (NCI-H23 lung): 517 nM | TGI (NCI-H23 lung): 2030 nM | GI50 (COLO 205 colon): 364 nM | TGI (COLO 205 colon): 1480 nM | GI50 (KM12 colon): 341 nM | TGI (KM12 colon): 2060 nM | GI50 (UO-31 renal): 83.2 nM | TGI (UO-31 renal): 1570 nM | GI50 (SK-OV-3 ovarian): 477 nM | TGI (SK-OV-3 ovarian): 1860 nM | GI50 (SR leukemia): 46.9 nM | TGI (SR leukemia): 1200 nM | GI50 (SK-MEL-28 melanoma): 478 nM | TGI (SK-MEL-28 melanoma): 2090 nM | GI50 (EKVX NSCLC): 176 nM | TGI (EKVX NSCLC): 1230 nM | GI50 (NCI-H460 lung): 116 nM | TGI (NCI-H460 lung): 5580 nM | GI50 (SNB-75 CNS): 1010 nM | TGI (SNB-75 CNS): 2880 nM | GI50 (HCT-116 colon): 182 nM | TGI (HCT-116 colon): 1320 nM | GI50 (LOX IMVI melanoma): 128 nM | TGI (LOX IMVI melanoma): 1300 nM | GI50 (M14 melanoma): 250 nM | TGI (M14 melanoma): 1370 nM | GI50 (MDA-MB-435): 807 nM | TGI (MDA-MB-435): 2710 nM | GI50 (K-562 leukemia): 356 nM | GI50 (SF-268 CNS): 357 nM | TGI (SF-268 CNS): 3900 nM | GI50 (CAKI-1 renal): 299 nM | TGI (CAKI-1 renal): 1660 nM | GI50 (BT-549 breast): 1060 nM | TGI (BT-549 breast): 3410 nM | GI50 (U251 CNS): 199 nM | TGI (U251 CNS): 2210 nM | GI50 (RPMI-8226 leukemia): 290 nM | TGI (RPMI-8226 leukemia): 3450 nM | GI50 (MDA-MB-468 breast): 190 nM | TGI (MDA-MB-468 breast): 661 nM | GI50 (OVCAR-8 ovarian): 365 nM | TGI (OVCAR-8 ovarian): 2380 nM | GI50 (CCRF-CEM leukemia): 141 nM | TGI (CCRF-CEM leukemia): 1950 nM | GI50 (A549 NSCLC): 424 nM | TGI (A549 NSCLC): 8910 nM | GI50 (HCT-15 colon): 89.1 nM | TGI (HCT-15 colon): 1550 nM | GI50 (786-0 renal): 365 nM | TGI (786-0 renal): 1690 nM | GI50 (DU-145 prostate): 526 nM | TGI (DU-145 prostate): 2440 nM | GI50 (HL-60(TB) leukemia): 166 nM | TGI (HL-60(TB) leukemia): 1690 nM | GI50 (IGROV1 ovarian): 146 nM | TGI (IGROV1 ovarian): 1600 nM | GI50 (HCC-2998 colon): 463 nM | TGI (HCC-2998 colon): 2030 nM | GI50 (A498 renal): 1620 nM | TGI (A498 renal): 3340 nM | GI50 (UACC-62 melanoma): 302 nM | TGI (UACC-62 melanoma): 1570 nM | GI50 (HOP-92 NSCLC): 330 nM | TGI (HOP-92 NSCLC): 2200 nM | GI50 (MDA-MB-231 breast): 438 nM | TGI (MDA-MB-231 breast): 1940 nM | GI50 (SK-MEL-5 melanoma): 602 nM | TGI (SK-MEL-5 melanoma): 1960 nM
